Literature values in patent publication US4897502A, “Process for making solid polyhalotriaryl phosphate esters” (priority 1987, dated 1990).
Read-outs that look alike come from different tables or passages of the source.

Columns and labels:
[1] = 0° C.

| Molecule | Hildebrand Solubility Parameter (Table I) | Hansen Dispersion Component (Table I) | other results |
| --- | --- | --- | --- |
| CCCCC(CC)CO (centres unmarked) [2-ethylhexanol] | 20.8 SI | – | – |
| CCCCCCCCCCO [Example 1-decanol, 1-decanol] | 20.5 SI | 15.4 SI | – |
| CCCCCCCO [Example 1-heptanol, 1-heptanol] | – | 15.1 SI | – |
| CCCCCCO [Example 1-hexanol, 1-hexanol] | – | 15.0 SI | – |
| CCCCCCCCO [Example 1-octanol, 1-octanol] | 21.1 SI | 15.2 SI | – |
| CCCCCO [Example 1-pentanol, 1-pentanol] | – | 14.4 SI | – |
| CCC(C)O (centres unmarked) [Example 2-butanol, 2-butanol] | 22.7 SI | 14.5 SI | – |
| CCCCCC(C)O (centres unmarked) [Example 2-heptanol, 2-heptanol] | – | 14.6 SI | – |
| CCCC(C)O (centres unmarked) [Example 2-pentanol, 2-pentanol] | 22.2 SI | 15.0 SI | – |
| CC(C)O [Example 2-propanol, 2-propanol] | – | – | Hansen Dispersion Component (comparison liquids): 7.6 |
| CCCCC(O)CC (centres unmarked) [Example 3-heptanol, 3-heptanol] | 20.2 SI | 14.6 SI | – |
| [Cl-].[Cl-].[Mg+2] [magnesium chloride] | – | – | magnesium chloride dissolving in 100 g ethanol ([1]; 100 g ethanol): 3.61 g; magnesium chloride dissolving in 100 g methanol ([1]; 100 g methanol): 15.5 g |
| CO [methanol] | – | – | Hansen Dispersion Component (comparison liquids): 7.4 |
| amyl alcohol [amyl alcohol (pract.)] | – | 14.5 SI | – |
